According to ChEMBL document CHEMBL5212743, “Selectivity Literature for EUbOPEN Chemogenomics Library wave 3” (2023):
Blank lines part the entries; values can stand above or below the compound they belong to.

Key:
[1] = target: Vascular endothelial growth factor receptor 2 (Homo sapiens, UniProt P35968); assay: Selectivity interaction (Kinase panel (literature or Upstate/Millipore)) EUB0000665a KDR
[2] = target: T1, YEATS domain-containing protein 2 (Homo sapiens, UniProt Q9ULM3); assay: Selectivity interaction (HTRF-based inhibition assay) EUB0000732a YEATS2
T1 sequence (Q9ULM3 whole entry): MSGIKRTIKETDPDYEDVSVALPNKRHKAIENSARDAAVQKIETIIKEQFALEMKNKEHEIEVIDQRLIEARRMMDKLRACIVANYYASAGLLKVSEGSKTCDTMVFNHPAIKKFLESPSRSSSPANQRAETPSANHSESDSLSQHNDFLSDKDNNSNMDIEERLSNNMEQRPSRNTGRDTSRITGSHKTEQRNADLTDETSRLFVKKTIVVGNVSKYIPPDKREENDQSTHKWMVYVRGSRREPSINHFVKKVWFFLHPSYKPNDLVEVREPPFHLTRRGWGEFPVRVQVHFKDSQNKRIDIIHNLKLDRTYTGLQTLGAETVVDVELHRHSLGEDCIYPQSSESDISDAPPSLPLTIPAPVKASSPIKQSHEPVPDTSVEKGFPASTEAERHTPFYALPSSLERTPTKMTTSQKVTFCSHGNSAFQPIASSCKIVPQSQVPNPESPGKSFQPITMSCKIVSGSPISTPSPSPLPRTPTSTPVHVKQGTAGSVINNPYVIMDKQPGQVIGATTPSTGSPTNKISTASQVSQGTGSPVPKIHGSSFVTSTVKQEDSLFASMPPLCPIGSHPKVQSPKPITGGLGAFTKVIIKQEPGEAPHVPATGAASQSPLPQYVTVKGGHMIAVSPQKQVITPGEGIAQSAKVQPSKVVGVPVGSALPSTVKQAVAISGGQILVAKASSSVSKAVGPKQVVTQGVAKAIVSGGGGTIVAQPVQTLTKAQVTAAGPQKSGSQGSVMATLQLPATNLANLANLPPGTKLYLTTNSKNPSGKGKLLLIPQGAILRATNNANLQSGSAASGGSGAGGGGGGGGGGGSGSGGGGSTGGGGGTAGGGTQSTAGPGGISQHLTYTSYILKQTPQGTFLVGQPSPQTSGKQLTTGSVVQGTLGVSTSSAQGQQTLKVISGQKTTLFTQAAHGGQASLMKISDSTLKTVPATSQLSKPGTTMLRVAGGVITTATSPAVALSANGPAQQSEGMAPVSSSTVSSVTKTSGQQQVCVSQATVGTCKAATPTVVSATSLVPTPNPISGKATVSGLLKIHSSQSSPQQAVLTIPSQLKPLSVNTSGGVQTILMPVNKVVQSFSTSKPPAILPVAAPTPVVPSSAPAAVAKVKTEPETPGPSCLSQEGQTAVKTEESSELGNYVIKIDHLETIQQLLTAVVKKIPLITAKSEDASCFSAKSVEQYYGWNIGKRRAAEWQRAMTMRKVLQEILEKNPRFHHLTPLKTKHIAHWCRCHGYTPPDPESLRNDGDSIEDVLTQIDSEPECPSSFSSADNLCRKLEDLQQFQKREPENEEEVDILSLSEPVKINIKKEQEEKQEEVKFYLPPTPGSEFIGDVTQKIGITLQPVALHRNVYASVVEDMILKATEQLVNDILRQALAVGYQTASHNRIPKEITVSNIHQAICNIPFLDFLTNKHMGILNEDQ

[3] = target: T2, YEATS domain-containing protein 4 (Homo sapiens, UniProt O95619); assay: Selectivity interaction (HTRF-based inhibition assay) EUB0000732a YEATS4
[4] = target: 5-hydroxytryptamine receptor 2B (Homo sapiens, UniProt P41595); assay: Selectivity interaction (CEREP panel (cellular receptors and 30 other enzymes)) EUB0000199c HTR2B
[5] = target: T3, Alpha-1B adrenergic receptor (Homo sapiens, UniProt P35368); assay: Selectivity interaction (CEREP panel (cellular receptors and 30 other enzymes)) EUB0000199c ADRA1B
T3 sequence (P35368 whole entry): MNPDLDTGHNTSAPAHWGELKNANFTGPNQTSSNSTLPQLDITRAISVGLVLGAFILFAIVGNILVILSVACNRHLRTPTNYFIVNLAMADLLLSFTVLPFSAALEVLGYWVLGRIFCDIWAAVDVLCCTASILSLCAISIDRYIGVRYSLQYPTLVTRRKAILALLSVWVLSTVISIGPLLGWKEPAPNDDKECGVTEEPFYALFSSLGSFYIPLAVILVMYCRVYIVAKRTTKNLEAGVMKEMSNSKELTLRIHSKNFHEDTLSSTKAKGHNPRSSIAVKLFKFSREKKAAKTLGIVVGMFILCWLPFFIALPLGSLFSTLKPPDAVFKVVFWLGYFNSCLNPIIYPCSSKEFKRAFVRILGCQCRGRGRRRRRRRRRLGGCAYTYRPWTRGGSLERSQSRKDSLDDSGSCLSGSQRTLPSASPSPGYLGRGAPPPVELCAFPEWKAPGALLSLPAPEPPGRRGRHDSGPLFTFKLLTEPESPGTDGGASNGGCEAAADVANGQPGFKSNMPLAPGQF

[6] = target: SWI/SNF-related matrix-associated actin-dependent regulator of chromatin subfamily A member 2 (Homo sapiens) (UniProt P51531); assay: Selectivity interaction (Bromodomain panel (DSF assay)) EUB0000199c SMARCA2
[7] = target: T4, Alpha-1A adrenergic receptor (Homo sapiens, UniProt P35348); assay: Selectivity interaction (CEREP panel (cellular receptors and 30 other enzymes)) EUB0000199c ADRA1A
T4 sequence (P35348 whole entry): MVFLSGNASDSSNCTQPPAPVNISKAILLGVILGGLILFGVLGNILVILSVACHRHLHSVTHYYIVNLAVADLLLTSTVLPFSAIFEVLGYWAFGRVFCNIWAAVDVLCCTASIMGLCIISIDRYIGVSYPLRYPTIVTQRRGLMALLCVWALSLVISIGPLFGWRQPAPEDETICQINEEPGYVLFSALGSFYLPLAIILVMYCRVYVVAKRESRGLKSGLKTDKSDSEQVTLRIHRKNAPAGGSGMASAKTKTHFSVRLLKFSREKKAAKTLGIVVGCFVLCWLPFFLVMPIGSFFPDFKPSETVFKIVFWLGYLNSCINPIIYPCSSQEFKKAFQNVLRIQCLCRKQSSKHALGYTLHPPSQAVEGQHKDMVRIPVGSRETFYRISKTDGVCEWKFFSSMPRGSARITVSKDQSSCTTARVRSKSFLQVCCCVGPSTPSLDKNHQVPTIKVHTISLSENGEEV

[8] = target: Kappa-type opioid receptor (Homo sapiens, UniProt P41145); assay: Selectivity interaction (CEREP panel (cellular receptors and 30 other enzymes)) EUB0000199c OPRK1
[9] = target: Protein ENL (Homo sapiens) (UniProt Q03111); assay: Selectivity interaction (DSF assay) EUB0000731a MLLT1
Protein AF-9 [10] = target: T5, Protein AF-9 (Homo sapiens, UniProt P42568)
[11] = target: Protein AF-9 (Homo sapiens) (UniProt P42568)
Protein AF-9 [12] = target: T5, Protein AF-9; remark: listed apart in the source
[13] = target: T2, YEATS domain-containing protein 4; assay: Selectivity interaction (Enzyme panel (PDEs, ion channels, and GPCRS, HTRF assay)) EUB0000731a YEATS4
[14] = target: T1, YEATS domain-containing protein 2; assay: Selectivity interaction (Enzyme panel (PDEs, ion channels, and GPCRS, HTRF assay)) EUB0000731a YEATS2
[15] = target: T6, Adenosine receptor A3 (Homo sapiens) (UniProt P0DMS8); details: at 10 µM
T6 sequence (whole entry): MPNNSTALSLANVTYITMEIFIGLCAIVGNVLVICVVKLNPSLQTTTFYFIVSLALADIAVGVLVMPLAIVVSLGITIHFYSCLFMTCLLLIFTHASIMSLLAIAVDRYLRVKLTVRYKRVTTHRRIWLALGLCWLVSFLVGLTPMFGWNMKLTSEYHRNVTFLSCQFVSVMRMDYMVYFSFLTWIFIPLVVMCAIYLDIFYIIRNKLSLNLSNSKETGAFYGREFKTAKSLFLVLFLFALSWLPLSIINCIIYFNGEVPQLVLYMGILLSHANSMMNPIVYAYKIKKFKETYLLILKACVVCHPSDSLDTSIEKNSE

[16] = target: Bromodomain-containing protein 4 (Homo sapiens, UniProt O60885)
[17] = target: 5-hydroxytryptamine receptor 6 (Homo sapiens) (UniProt P50406); details: at 10 µM
[18] = target: Bromodomain and PHD finger-containing protein 3 (Homo sapiens) (UniProt Q9ULD4)
[19] = target: T7, Adenosine receptor A1 (Homo sapiens) (UniProt P30542); details: at 10 µM
T7 sequence (whole entry): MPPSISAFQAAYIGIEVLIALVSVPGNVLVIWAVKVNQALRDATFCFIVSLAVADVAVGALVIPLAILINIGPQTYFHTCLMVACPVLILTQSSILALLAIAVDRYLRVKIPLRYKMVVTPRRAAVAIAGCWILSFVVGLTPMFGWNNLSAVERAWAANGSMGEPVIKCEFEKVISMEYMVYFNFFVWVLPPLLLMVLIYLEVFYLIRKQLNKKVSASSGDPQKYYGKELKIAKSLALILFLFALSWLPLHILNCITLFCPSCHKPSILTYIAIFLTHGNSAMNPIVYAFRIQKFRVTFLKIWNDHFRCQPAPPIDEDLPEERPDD

[20] = target: Bromodomain-containing protein 1 (Homo sapiens) (UniProt O95696)
Peregrin (Homo sapiens) = Peregrin (Homo sapiens) (UniProt P55201)
[21] = target: Bromodomain-containing protein 1 (Homo sapiens, UniProt O95696); assay: Selectivity interaction (AlphaScreen) EUB0000323b BRD1
Protein ENL [22] = target: T8, Protein ENL (Homo sapiens, UniProt Q03111); assay: Selectivity interaction (BioLayer Interferometry assay (BLI)) EUB0000283b MLLT1
[23] = target: Muscarinic acetylcholine receptor M2 (Homo sapiens, UniProt P08172); assay: Selectivity interaction (PSP Principial panel 20118+ (panel of GPCRs, transporter, and ion channels)) EUB0000283b CHRM2
Tribbles homolog 2 = Tribbles homolog 2 (Homo sapiens, UniProt Q92519); assay: Selectivity interaction (PSP kinase safety panel (Eurofins)) EUB0000283b TRIB2
Histamine H3 receptor = Histamine H3 receptor (Homo sapiens, UniProt Q9Y5N1); assay: Selectivity interaction (PSP Principial panel 20118+ (panel of GPCRs, transporter, and ion channels)) EUB0000283b HRH3
[24] = target: T1, YEATS domain-containing protein 2; assay: Selectivity interaction (Bromodomain panel (TR-FRET assay)) EUB0000283b YEATS2
[25] = target: Serine/threonine-protein kinase pim-1 (Homo sapiens, UniProt P11309); assay: Selectivity interaction (PSP kinase safety panel (Eurofins)) EUB0000283b PIM1
[26] = target: Chromatin remodeling regulator CECR2 (Homo sapiens, UniProt Q9BXF3); assay: Selectivity interaction (Bromodomain panel (TR-FRET assay)) EUB0000283b CECR2
[27] = target: T2, YEATS domain-containing protein 4; assay: Selectivity interaction (Bromodomain panel (TR-FRET assay)) EUB0000283b YEATS4
[28] = target: Sodium-dependent noradrenaline transporter (Homo sapiens, UniProt P23975); assay: Selectivity interaction (PSP Principial panel 20118+ (panel of GPCRs, transporter, and ion channels)) EUB0000283b SLC6A2
Acetylcholinesterase = Acetylcholinesterase (Homo sapiens, UniProt P22303); assay: Selectivity interaction (PSP Principial panel 20118+ (panel of GPCRs, transporter, and ion channels)) EUB0000283b ACHE
Protein ENL [29] = target: T8, Protein ENL; assay: Selectivity interaction (ITC) EUB0000283b MLLT1

T2 sequence (O95619 whole entry, the tested form may be a part): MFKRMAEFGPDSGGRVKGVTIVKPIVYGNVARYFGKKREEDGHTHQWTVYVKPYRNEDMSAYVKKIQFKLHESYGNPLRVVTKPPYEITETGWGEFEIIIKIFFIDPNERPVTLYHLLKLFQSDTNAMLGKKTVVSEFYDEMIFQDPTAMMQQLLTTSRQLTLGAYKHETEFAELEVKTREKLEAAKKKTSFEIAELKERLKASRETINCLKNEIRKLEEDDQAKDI
T5 sequence (P42568 whole entry): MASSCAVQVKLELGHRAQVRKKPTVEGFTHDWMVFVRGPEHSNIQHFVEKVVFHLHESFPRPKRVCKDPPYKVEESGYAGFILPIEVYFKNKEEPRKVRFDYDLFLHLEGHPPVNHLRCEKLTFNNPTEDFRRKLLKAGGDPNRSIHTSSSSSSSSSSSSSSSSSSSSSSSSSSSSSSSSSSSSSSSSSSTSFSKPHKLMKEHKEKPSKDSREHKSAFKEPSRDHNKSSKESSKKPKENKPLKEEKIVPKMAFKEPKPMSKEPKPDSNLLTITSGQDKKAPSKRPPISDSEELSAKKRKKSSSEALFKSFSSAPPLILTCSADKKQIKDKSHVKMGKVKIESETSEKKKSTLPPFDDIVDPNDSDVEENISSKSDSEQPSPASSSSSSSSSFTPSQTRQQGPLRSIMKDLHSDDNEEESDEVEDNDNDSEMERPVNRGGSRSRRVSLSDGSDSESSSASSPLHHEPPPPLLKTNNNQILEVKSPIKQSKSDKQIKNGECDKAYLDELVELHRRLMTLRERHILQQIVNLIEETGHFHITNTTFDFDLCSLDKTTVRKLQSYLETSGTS
T8 sequence (Q03111 whole entry): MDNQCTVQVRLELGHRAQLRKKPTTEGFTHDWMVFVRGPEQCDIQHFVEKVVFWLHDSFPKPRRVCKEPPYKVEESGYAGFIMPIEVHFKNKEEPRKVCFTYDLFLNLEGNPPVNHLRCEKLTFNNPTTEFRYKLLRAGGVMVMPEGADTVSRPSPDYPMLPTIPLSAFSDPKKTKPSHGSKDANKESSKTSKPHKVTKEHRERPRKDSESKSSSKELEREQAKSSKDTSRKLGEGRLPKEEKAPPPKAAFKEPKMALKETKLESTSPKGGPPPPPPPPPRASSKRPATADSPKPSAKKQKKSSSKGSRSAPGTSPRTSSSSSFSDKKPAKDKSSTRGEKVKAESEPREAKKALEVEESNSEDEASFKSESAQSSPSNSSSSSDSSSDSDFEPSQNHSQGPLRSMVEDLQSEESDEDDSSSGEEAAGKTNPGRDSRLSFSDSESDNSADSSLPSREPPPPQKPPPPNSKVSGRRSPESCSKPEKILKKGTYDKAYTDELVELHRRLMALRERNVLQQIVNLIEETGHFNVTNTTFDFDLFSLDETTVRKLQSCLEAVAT
Vascular endothelial growth factor receptor 2, sequence (P35968 whole entry, the tested form may be a part): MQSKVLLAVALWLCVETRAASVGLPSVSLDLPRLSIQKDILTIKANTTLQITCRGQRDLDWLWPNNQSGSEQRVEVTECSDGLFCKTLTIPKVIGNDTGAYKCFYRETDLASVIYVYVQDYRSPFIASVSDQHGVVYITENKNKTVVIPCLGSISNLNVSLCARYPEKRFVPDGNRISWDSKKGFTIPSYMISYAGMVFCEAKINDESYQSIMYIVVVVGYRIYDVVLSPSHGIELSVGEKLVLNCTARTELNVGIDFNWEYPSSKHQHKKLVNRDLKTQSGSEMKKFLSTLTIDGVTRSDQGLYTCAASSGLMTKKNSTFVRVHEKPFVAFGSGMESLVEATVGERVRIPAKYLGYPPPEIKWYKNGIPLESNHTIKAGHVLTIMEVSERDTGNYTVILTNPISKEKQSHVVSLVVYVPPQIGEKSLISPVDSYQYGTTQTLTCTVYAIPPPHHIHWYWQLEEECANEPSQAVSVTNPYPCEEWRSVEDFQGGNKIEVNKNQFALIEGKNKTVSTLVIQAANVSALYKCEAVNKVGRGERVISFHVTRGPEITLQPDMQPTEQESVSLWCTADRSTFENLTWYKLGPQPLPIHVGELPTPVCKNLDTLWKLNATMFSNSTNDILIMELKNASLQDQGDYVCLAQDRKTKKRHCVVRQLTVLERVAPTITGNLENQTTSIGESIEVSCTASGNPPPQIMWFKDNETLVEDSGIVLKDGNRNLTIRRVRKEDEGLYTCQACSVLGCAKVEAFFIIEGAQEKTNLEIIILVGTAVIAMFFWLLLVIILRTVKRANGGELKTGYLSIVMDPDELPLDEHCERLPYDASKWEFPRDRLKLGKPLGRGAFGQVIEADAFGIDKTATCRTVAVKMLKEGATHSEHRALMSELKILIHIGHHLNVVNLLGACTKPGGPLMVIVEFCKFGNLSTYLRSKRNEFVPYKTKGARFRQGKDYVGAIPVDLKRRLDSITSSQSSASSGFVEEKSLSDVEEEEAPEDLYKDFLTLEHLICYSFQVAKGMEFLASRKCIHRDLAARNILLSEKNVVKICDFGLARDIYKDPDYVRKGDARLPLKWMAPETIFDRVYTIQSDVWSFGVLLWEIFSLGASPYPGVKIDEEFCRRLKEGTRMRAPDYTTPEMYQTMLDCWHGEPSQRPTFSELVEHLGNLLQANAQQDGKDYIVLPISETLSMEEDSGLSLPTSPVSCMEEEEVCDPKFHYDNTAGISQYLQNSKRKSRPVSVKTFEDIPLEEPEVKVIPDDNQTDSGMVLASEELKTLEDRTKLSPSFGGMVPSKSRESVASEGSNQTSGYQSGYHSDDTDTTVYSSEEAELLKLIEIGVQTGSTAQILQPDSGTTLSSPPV
Protein AF-9 (Homo sapiens), sequence (P42568 whole entry): as the sequence (P42568 whole entry) above
Kappa-type opioid receptor, sequence (P41145 whole entry): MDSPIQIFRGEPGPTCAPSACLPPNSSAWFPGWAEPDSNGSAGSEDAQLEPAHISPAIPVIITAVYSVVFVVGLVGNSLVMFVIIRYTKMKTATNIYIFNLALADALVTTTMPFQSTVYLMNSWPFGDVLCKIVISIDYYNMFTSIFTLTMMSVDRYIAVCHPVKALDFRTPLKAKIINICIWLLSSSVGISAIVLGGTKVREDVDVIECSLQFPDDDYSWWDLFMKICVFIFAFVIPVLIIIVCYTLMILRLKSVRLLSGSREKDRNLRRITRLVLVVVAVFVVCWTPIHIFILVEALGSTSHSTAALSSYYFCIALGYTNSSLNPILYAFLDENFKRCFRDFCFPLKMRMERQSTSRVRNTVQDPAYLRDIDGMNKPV
Peregrin (Homo sapiens), sequence (P55201 whole entry): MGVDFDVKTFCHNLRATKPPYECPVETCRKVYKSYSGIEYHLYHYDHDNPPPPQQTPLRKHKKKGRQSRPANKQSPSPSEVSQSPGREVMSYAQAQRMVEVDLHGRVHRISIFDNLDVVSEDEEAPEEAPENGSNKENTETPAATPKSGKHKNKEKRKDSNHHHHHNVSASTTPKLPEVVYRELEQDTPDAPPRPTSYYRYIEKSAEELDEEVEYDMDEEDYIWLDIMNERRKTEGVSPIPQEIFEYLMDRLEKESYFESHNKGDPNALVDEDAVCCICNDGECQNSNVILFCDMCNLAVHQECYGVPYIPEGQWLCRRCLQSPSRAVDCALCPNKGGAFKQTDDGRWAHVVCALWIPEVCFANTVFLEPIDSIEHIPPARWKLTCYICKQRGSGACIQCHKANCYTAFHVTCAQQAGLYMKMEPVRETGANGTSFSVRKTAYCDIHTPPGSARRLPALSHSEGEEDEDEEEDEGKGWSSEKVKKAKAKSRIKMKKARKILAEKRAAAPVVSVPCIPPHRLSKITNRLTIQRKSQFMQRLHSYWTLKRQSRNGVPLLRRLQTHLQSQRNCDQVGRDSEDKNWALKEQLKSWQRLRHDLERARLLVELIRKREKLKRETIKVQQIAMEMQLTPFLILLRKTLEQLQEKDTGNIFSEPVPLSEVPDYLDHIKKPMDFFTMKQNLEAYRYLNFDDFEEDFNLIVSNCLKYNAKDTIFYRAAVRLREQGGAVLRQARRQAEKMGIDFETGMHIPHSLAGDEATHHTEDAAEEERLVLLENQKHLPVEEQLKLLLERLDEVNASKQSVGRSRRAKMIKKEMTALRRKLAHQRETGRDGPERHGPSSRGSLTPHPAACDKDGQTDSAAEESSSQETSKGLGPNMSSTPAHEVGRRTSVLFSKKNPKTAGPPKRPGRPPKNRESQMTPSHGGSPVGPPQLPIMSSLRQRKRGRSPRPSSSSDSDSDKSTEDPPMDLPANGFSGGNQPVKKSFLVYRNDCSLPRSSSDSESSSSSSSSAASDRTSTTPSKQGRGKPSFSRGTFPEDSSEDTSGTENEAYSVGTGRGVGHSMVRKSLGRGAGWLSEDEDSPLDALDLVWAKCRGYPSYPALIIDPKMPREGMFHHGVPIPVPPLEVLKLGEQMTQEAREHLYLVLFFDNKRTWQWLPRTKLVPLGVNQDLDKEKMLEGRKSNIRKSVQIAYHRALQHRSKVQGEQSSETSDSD
5-hydroxytryptamine receptor 6 (Homo sapiens), sequence (P50406 whole entry): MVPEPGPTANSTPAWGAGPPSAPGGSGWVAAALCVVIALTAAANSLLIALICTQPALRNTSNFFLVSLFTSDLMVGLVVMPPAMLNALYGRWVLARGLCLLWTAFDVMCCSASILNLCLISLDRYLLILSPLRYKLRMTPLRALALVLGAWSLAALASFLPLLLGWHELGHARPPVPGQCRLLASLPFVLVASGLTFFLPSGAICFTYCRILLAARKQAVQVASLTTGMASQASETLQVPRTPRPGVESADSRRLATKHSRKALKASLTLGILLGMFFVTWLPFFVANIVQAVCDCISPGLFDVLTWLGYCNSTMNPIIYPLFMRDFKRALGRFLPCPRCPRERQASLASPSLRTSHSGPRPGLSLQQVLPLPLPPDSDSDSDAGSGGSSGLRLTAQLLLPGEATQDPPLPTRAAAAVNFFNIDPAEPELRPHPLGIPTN
Protein ENL (Homo sapiens), sequence (Q03111 whole entry): as the sequence (Q03111 whole entry) above

IC50 [2]: > 30 µM | IC50 [3]: > 30 µM
Compound: CN(C)C(=O)c1ccc(-c2cc(C(=O)N(C)C3CCCC3)no2)cc1O

IC50 [4]: 4 µM | IC50 [5]: 3.6 µM | dTm [6]: 9.2 K | IC50 [7]: 0.44 µM | IC50 [8]: 13 µM
Compound: O=C(/C=C/N1C[C@H]2C[C@@H]1CN2c1ccccn1)c1ccccc1O

Continued, compound first:

Compound: Cn1cc(-c2[nH]c3cc(NC(=O)[C@H](N)C4CCCCC4)cc4c3c2C=NNC4=O)cn1
IC50 [1]: 0.008 µM

Compound: CN(C)C(=O)c1ccc(-c2cc(C(=O)N[C@@H]3CCc4ccccc43)no2)cc1O
dTm [9]: 3.61 K | Kd (Protein AF-9 [10]): 0.11 µM | dTm [11]: 5.13 K | Kd (Protein AF-9 [12]): 0.076 µM | IC50 [13]: > 40 µM | IC50 [14]: > 40 µM

Compound: COc1cc2c(cc1NS(=O)(=O)c1ccc(Br)cc1C)n(C)c(=O)n2C
% of inhibition [15]: 53% | dTm [16]: 2.1 K | % of inhibition [17]: 54% | dTm [18]: 3.3 K | % of inhibition [19]: 82% | dTm [20]: 3.1 K | dTm (Peregrin (Homo sapiens)): 6.5 K | IC50 [21]: 2.2 µM

Compound: C[C@H]1CCCN1Cc1nc2cc(NC(=O)c3ccc4cnccc4c3)ccc2[nH]1
Kd (Protein ENL [22]): 0.075 µM | IC50 [23]: 1.8 µM | IC50 (Tribbles homolog 2): 3.5 µM | IC50 (Histamine H3 receptor): 0.29 µM | IC50 [24]: > 20 µM | IC50 [25]: 8.6 µM | IC50 [26]: > 40 µM | IC50 [27]: > 20 µM | IC50 [28]: 8.7 µM | IC50 (Acetylcholinesterase): 0.25 µM | Kd (Protein ENL [29]): 0.109 µM
